± gives the expanded uncertainty stated by the source.
Legend:
[1] = 298.15 K; 101.33 kPa; Liquid; Vibrating tube method
[2] = refractive index (Na D-line) (dimensionless); details: 298.15 K; 101.33 kPa; Liquid; Standard Abbe refractometry
[3] = wn = mass fraction of the nth substance listed; details: 298.15 K, 101 kPa, Liquid, Vibrating tube method

SMILES	mass density [1]	refractive index [2]	mass density ([3]; w1 = 0.0115)	mass density ([3]; w1 = 0.05)	mass density ([3]; w1 = 0.101)	mass density ([3]; w1 = 0.2011)	mass density ([3]; w1 = 0.3051)	mass density ([3]; w1 = 0.3993)
CCCC(=O)[O-].[NH3+]CCO [2-hydroxy ethylammonium butanoate]	1075.12 ± 6.3 kg/m3	1.4659 ± 0.0009	–	–	–	–	–	–
CCCC(=O)[O-].[NH3+]CCO [2-hydroxy ethylammonium butanoate] + O	–	–	999.43 ± 2.2 kg/m3	1006.63 ± 8.8 kg/m3	1016.39 ± 11 kg/m3	1033.12 ± 8.9 kg/m3	1046.73 ± 7.6 kg/m3	1058.12 ± 7.3 kg/m3
